Laboratory results reported in article PMC10375784, “Synthesis of phthalazine-based derivatives as selective anti-breast cancer agents through EGFR-mediated apoptosis: in vitro and in silico studies” (BMC Chemistry, 2023).
Read-outs that look alike come from different tables or passages of the source.

Key:
VEGFR‐2 = settings: cited from earlier work
MCF-7 cells = experiment: MTT cytotoxicity assay, MCF-7; format: cell-based; settings: Homo sapiens, MCF7, 48 h, three independent trials, read-out: IC50 (μM) ± SD MCF-7
Experimental: (§1) MCF-7, HepG2 cancer cells and WISH normal cells were obtained from the National Cancer Institute in Cairo, Egypt, they were cultured in complete media of RPMI and DMEM, respectively at 5% carbon dioxide and 37 °C following standard tissue culture work. The cells were grown in “10% fetal bovine serum (FBS) and 1% penicillin–streptomycin” in 96-multiwell plate. All the synthesized compounds were screened for their cytotoxicity using 20 µL of MTT solution (Promega, USA) for 48 hours using untreated and treated cells with concentrations of (0.01, 0.1, 1, 10, and 100 µM) for 48 h. The plate was cultured for 3 h. Percentage of cell viability was calculated following this equation: 100-(ASample/AControl)X100 . An ELISA microplate reader was used to measure the absorbance at 690 nm to calculate the viability versus concentration, and the IC50 value using GraphPad prism software.

MDA-MB-231 cells [1] = experiment: MTT cytotoxicity assay, MDA-MB-231; format: cell-based
[2] = tested on: breast MCF-7 and MDA-MB-231 cancer cell lines; experiment: SAR ranking of cytotoxicity (from Table 1); format: cell-based; settings: Fig. 4, SAR summary
[3] = tested on: breast MCF-7 and MDA-MB-231 cancer cell lines; experiment: SAR ranking of cytotoxicity (from Table 1); settings: based on Table 1; cell line not stated, order follows MCF-7 values
Experimental: as §1

[4] = MTT cytotoxicity assay, normal breast cells MCF-10A; format: cell-based; settings: human; MCF-10A normal breast cells, highest concentration; read-out: percentage of cell viability at the highest concentration
MCF-10A cells = experiment: as above; format: cell-based; settings: Homo sapiens, MCF-10A; MTT, 48 h, normal breast cells; read-out: IC50 (μM) ± SD MCF-10A
EGFR = molecular target: T1, EGFR (Homo sapiens, UniProt P00533); experiment: EGFR enzyme inhibition (BPS Bioscience kit, ELISA); format: biochemical; settings: three independent replicates; for IC50: five concentrations, read-out: EGFR IC50 [nM] ± SD
T1 construct: purchased BPS Bioscience Corporation 40321
Experimental: The luminescence was measured with a microplate reader at 450 nm by ELISA Reader (PerkinElmer). Inhibition percentage was calculated following this equation: 100-[Acontrol/Atreated-Control)] , IC50 was determined using GraphPad prism7 using inhibition curves at five different concentrations of each compound.

MDA-MB-231 cells [5] = experiment: Flow cytometry Annexin V/PI apoptosis/necrosis assessment; format: cell-based; settings: MDA-MB-231, treated at IC50 0.57 μM, 48 h
Experimental: MDA-MB-231 cells were incubated overnight in 6-well culture plates (3–5 × 10^5 cells/well) and then treated with the IC50 values for 48 h with compound 12d. After that, the cells were incubated in a 100 µL solution of Annexin binding buffer "25 mM CaCl2, 1.4 M NaCl, and 0.1 M Hepes/NaOH, pH 7.4" in the dark for 30 min with "Annexin V-FITC solution (1:100) and propidium iodide (PI) at a concentration equivalent to 10 µg/mL." The labeled cells were then extracted using the Cytoflex FACS machine. CytExpert software was used to analyze the data.

[6] = Homo sapiens, MDA-MB-231, MTT, 48 h, three independent trials, read-out: IC50 (μM) ± SD MDA-MB-231
[7] = Fig. 3, MTT, 100 µM to 0.01 µM, 48 h, cell line not given, they match MDA-MB-231
[8] = Homo sapiens, Fig. 3, MTT, 100 µM to 0.01 µM, 48 h, cell line not given, they match MDA-MB-231, read-out: IC50 (Fig. 3 curve fit)

T1 sequence (P00533 25-1210): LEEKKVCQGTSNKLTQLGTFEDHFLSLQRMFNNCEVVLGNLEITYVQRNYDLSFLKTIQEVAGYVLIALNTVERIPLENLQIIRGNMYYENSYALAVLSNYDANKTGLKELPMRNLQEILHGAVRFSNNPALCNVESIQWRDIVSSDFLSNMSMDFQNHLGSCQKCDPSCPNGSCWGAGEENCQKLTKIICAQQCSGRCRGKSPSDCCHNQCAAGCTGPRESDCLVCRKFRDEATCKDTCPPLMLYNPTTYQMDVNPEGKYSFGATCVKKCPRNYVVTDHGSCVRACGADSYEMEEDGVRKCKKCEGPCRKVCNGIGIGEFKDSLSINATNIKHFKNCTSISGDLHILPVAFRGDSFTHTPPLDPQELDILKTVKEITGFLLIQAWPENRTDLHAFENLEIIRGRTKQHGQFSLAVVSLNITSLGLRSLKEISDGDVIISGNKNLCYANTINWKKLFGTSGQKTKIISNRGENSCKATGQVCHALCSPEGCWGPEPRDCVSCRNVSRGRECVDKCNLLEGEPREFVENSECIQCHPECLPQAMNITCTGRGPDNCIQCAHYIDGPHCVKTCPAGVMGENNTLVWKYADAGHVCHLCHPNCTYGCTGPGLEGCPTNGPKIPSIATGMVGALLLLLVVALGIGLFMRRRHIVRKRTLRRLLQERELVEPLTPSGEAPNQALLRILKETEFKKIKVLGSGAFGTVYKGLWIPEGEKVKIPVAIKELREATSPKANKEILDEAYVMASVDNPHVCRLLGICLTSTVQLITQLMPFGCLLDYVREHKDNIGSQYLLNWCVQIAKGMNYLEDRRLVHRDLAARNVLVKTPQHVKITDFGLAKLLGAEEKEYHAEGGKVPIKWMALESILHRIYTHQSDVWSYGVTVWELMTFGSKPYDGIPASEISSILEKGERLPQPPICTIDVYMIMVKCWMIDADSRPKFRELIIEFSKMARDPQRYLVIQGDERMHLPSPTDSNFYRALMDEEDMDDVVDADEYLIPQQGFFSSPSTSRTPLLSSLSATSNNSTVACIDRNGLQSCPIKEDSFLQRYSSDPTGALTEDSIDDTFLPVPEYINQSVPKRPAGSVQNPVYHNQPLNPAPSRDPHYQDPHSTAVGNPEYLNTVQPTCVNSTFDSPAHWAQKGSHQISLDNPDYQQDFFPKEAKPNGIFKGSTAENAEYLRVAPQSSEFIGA

melting point [°C] | SMILES | IC50 (MCF-7 cells) [µM] | IC50 (MDA-MB-231 cells [1]; [6]) [µM] | level of cytotoxic activity (Fig. 4) [2] | order of cytotoxic activity (SAR) [3] | also measured
162 to 164 | COC(=O)CNC(=O)CNC(=O)Cn1nc(Cc2ccccc2)c2ccccc2c1=O [Compound 11a, methyl (2-(4-benzyl-1-oxophthalazin-2(1H)-yl)acetyl) glycyl glycinate] | 11.3 ± 0.29 | 7.2 ± 0.3 | Second level activity (Moderate cytotoxicity) | moderate cytotoxicity (IC50 ≤ 20 μM) | 
190 to 192 | COC(=O)C(NC(=O)CNC(=O)Cn1nc(Cc2ccccc2)c2ccccc2c1=O)C(C)C (stereo not shown) [Compound 11d, methyl (2-(4-benzyl-1-oxophthalazin-2(1H)-yl)acetyl) glycyl valinate] | 2.1 ± 0.01 | 0.92 ± 0.01 |  |  | LogIC50 (Fig. 3 curve fit) (MDA-MB-231 cells [1]; [7]): -0.03564; IC50 (MDA-MB-231 cells [1]; [8]): 0.921 µM; viability at 48 h, 100 µM [4]: 11%; IC50 (MCF-10A cells): 39.4 ± 1.8 µM; inhibition at 10 µM (EGFR): 92.9 ± 2.08%; IC50 (EGFR): 79.6 ± 1.35 nM
209 to 210 | C/C(=N\NC(=O)CNC(=O)Cn1nc(Cc2ccccc2)c2ccccc2c1=O)c1ccco1 [Compound 12c, (E)-2-(4-benzyl-1-oxophthalazin-2(1H)-yl)-N-(2-(2-(1-(furan-2-yl)ethylidene) hydrazineyl)-2-oxoethyl) acetamide] | 1.4 ± 0.05 | 1.89 ± 0.04 | First level activity (Potent cytotoxicity) | potent cytotoxicicty (IC50 ≤ 2.5 μM) | LogIC50 (Fig. 3 curve fit) (MDA-MB-231 cells [1]; [7]): 0.2772; IC50 (MDA-MB-231 cells [1]; [8]): 1.89 µM; viability at 48 h, 100 µM [4]: 9.6%; IC50 (MCF-10A cells): 43.6 ± 1.9 µM; inhibition at 10 µM (EGFR): 96.2 ± 2.04%; IC50 (EGFR): 65.4 ± 1.12 nM

The remaining lines, values behind:

SMILES | melting point [°C] | IC50 (MCF-7 cells) [µM] | IC50 (MDA-MB-231 cells [1]; [6]) [µM] | level of cytotoxic activity (Fig. 4) [2] | order of cytotoxic activity (SAR) [3] | also measured
Cc1ccc(Nc2nnc(Cc3ccncc3)c3ccccc23)cc1Br [AAC789] |  |  |  |  |  | IC50 (VEGFR‐2): 20 nM
O=C(Cn1nc(Cc2ccccc2)c2ccccc2c1=O)NCc1ccccc1 [Compound 6a, 2-(4-benzyl-1-oxophthalazin-2(1H)-yl)-N-benzyl acetamide] | 174 to 176 | 18.6 ± 0.69 | 19.8 ± 0.74 | Third level activity (Poor cytotoxicity) |  | 
C=CCNC(=O)Cn1nc(Cc2ccccc2)c2ccccc2c1=O [Compound 6f, 2-(4-benzyl-1-oxophthalazin-2(1H)-yl)-N-allyl acetamide] | 164 to 166 | 23.1 ± 0.94 | ≥ 50 | Third level activity (Poor cytotoxicity) |  | 
O=C(Cn1nc(Cc2ccccc2)c2ccccc2c1=O)N1CCCCC1 [Compound 6g, 4-benzyl-2-(2-oxo-2-(piperidin-1-yl)ethyl) phthalazin-1(2H)-one] | 192 to 194 |  |  |  |  | 
O=C(Cn1nc(Cc2ccccc2)c2ccccc2c1=O)N1CCOCC1 [Compound 6h, 4-benzyl-2-(2-morpholino-2-oxoethyl) phthalazin-1(2H)-one] | 210 to 212 | 17.3 ± 0.31 | 21.3 ± 0.64 | Third level activity (Poor cytotoxicity) |  | 
COC(=O)CNC(=O)Cn1nc(Cc2ccccc2)c2ccccc2c1=O [Compound 7a, methyl (2-(4-benzyl-1-oxophthalazin-2(1H)-yl)acetyl) glycinate] |  | ≥ 50 | 26.5 ± 0.79 |  |  | 
NNC(=O)CNC(=O)Cn1nc(Cc2ccccc2)c2ccccc2c1=O [Compound 8a, 2-(4-benzyl-1-oxophthalazin-2(1H)-yl)-N-(2-hydrazineyl-2-oxoethyl) acetamide] | 202 to 204 | 31.2 ± 1.01 | 1.34 ± 0.13 |  |  | 
O=C(CNC(=O)Cn1nc(Cc2ccccc2)c2ccccc2c1=O)NCc1ccccc1 [Compound 10a, N-benzyl-2-(2-(4-benzyl-1-oxophthalazin-2(1H)-yl)acetamido) acetamide] | 186 to 188 | ≥ 50 | 6.4 ± 0.18 |  |  | 
C=CCNC(=O)CNC(=O)Cn1nc(Cc2ccccc2)c2ccccc2c1=O [Compound 10f, N-allyl-2-(2-(4-benzyl-1-oxophthalazin-2(1H)-yl)acetamido) acetamide] | 188 to 190 | 15.4 ± 0.28 | 8.6 ± 0.1 | Second level activity (Moderate cytotoxicity) | moderate cytotoxicity (IC50 ≤ 20 μM) | 
O=C(Cn1nc(Cc2ccccc2)c2ccccc2c1=O)NCC(=O)N1CCOCC1 [Compound 10h, 2-(4-benzyl-1-oxophthalazin-2(1H)-yl)-N-(2-morpholino-2-oxoethyl) acetamide] | 148 to 150 | 16.4 ± 0.31 | 2.3 ± 0.1 | Second level activity (Moderate cytotoxicity) | moderate cytotoxicity (IC50 ≤ 20 μM) | 
Nc1cc(=O)[nH]n1C(=O)CNC(=O)Cn1nc(Cc2ccccc2)c2ccccc2c1=O [Compound 12d, N-(2-(5-amino-3-oxo-2,3-dihydro-1H-pyrazol-1-yl)-2-oxoethyl)-2-(4-benzyl-1-oxophthalazin-2(1H)-yl) acetamide] |  | 1.9 ± 0.01 | 0.57 ± 0.09 | First level activity (Potent cytotoxicity) | potent cytotoxicicty (IC50 ≤ 2.5 μM) | LogIC50 (Fig. 3 curve fit) (MDA-MB-231 cells [1]; [7]): -0.2373; IC50 (MDA-MB-231 cells [1]; [8]): 0.579 µM; cell growth inhibition at the highest concentration (MDA-MB-231 cells [1]; MDA-MB-231, highest concentration (range 100 µM to 0.01 µM), 48 h): 98.2%; viability at 48 h, 100 µM [4]: 3%; IC50 (MCF-10A cells): 41.6 ± 1.8 µM; inhibition at 10 µM (EGFR): 97.6 ± 2.49%; IC50 (EGFR): 21.4 ± 0.67 nM; early apoptosis (Q4, AV+/PI−) (MDA-MB-231 cells [5]): 24.2%; late apoptosis (Q2, AV+/PI+) (MDA-MB-231 cells [5]): 18.3%; necrosis fold vs control (MDA-MB-231 cells [5]): 9.25 fold; total apoptosis fold vs control (MDA-MB-231 cells [5]): 64.4 fold; total apoptotic cell death (MDA-MB-231 cells [5]; control 0.66%): 42.5%; necrosis (Q1, AV−/PI+) (MDA-MB-231 cells [5]; control 0.67%): 6.2%
C#Cc1cccc(Nc2ncnc3cc(OCCOC)c(OCCOC)cc23)c1 [Erlotinib, reference compound] |  | 1.32 ± 0.04 |  |  |  | IC50 (MDA-MB-231 cells [1]; Homo sapiens, MDA-MB-231, 48 h, MTT, three independent trials, read-out: IC50 (μM) ± SD MDA-MB-231): 1 µM; IC50 (MDA-MB-231 cells [1]; MTT, 48 h, three independent trials, read-out: IC50 (μM) ± SD MDA-MB-231): 1.02 ± 0.1 µM; IC50 (MCF-10A cells): 30.9 ± 1.8 µM
